Measurements reported in the NIST ThermoML archive (doi:10.1016/j.tca.2018.08.005).
Numbers after ± are expanded uncertainties.

Key:
[1] = Crystal; DTA
[2] = Molar enthalpy of transition or fusion; details: Crystal; DSC

Q: With O.O.O.O.O.O.O.O.O.O.O=S(=O)([O-])[O-].[Na+].[Na+] [sodium sulfate decahydrate] as the molecule, how does the Normal melting temperature [1] read?
A: The Normal melting temperature was 35.00 ± 5 °C.

Q: What about the “Molar enthalpy of transition or fusion” value [2] of the same molecule?
A: Its value is 18 ± 1.84 kcal/mol.
